Measured values published in patent publication US20230329282A1, “Application of 1-Deoxynojirimycin in Feed for Improving Nutritional Value and Sensory Effect of Rabbit Meat Products” (priority 2023, published 2023).
Marks after values point to notes of the source that are not given here.

Key:
[1] = tested on: New Zealand white rabbits; conditions: cited from earlier work
[2] = tested on: New Zealand white rabbits; assay: Apparent digestibility of nutrients, total collection method; assay type: in vivo; conditions: feces collected 3 d from day 14
Description: (§1) The single-factor completely randomized test design is adopted. 36 45-day-old healthy New Zealand white rabbits (male) with the average weight of (1.05±0.04) kg are selected and randomly divided into 3 groups, and each group has 12 replicates with 1 rabbit per replicate. A control group is fed with a basal diet, an L-DNJ group is fed with the basal diet+0.14 g/kg DNJ, and an H-DNJ group is fed with the basal diet+0.28 g/kg DNJ. The diet is uniformly mixed to be prepared into cylindrical particles with the diameter of 6 mm and the length of 1 cm. The preliminary trial period is 14 d, and the trial period is 28 d.
On the 14th day of the test, 8 experimental rabbits with similar weight are randomly selected from each group and transferred to metabolism cages for digestion and metabolism tests. The digestion and metabolism tests are conducted by the total collection method. All fecal samples of the experimental rabbits are collected for 3 consecutive days, and the contents of nutrients in the diet and fecal samples are measured according to the method in the book written by Zhang Liying. The calculation formula is: apparent digestibility of a nutrient (%)=(content of the nutrient in diet−content of the nutrient in feces)/content of the nutrient in diet×100.

[3] = tested on: New Zealand white rabbits; assay: Antioxidant indexes of rabbit meat (T-AOC, SOD, GSH-Px, MDA kits); assay type: in vivo; conditions: 28 d, muscle homogenate
Description: as §1
About 5 g of muscular tissue is rinsed in 0-4° C. precooled normal saline to remove blood, dried with filter paper, and then weighed. The muscle tissue and 0-4° C. precooled homogenate buffer are thoroughly mixed and homogenized in an ice water bath at a […] to prepare muscle tissue homogenate with the mass concentration of 10%. The homogenate buffer contains 0.01 mol/L sucrose, 0.14 mol/L NaCl, 0.01 mol/L Tris-HCl and 0.0001 mol/L Na2EDTA, with the pH value of 7.4. The total protein content and the malondialdehyde (MDA) content of the tissue suspension is detected with a kit by a colorimetric method. Before the activities of total antioxidant capacity (T-AOC) enzyme, superoxide dismutase (SOD) and glutathione peroxidase (GSH-Px) are measured, the homogenate suspension is centrifuged at 3000 r/min for 15 min, the superneant is taken, and the activities of the enzymes are measured with relevant kits. All the kits are from Nanjing Jiancheng Bioengineering Institute, and the operation method is shown in the instructions of kits.

[4] = tested on: New Zealand white rabbits; assay: Meat quality of rabbit longissimus dorsi (pH, meat color, drip loss, shear force) after DNJ-supplemented diet; assay type: in vivo; conditions: 28 d; for Meat color Brightness L* / Meat color Redness a* / Meat color Yellowness b* / pH45min / pH24 h / pH24 h decreased: longissimus dorsi; for Drip loss: meat hung at 4° C. 24 h
Description: as §1
Before the test, rabbit houses and cages are cleaned and disinfected, rabbits are immunized according to routine procedures, and the rabbit houses are naturally ventilated and illuminated. Each experimental rabbit is raised in a single cage and fed with a diet and water twice a day at fixed time (8:00 am and 17:00 pm), and is free to eat and drink.
The rabbits are deprived of food (but not water) on the night of the end of the experiment, and after weighing in the next morning, 8 rabbits with similar weight are selected from each group and slaughtered. The longissimus dorsi muscles of the rabbits are collected, the pH values of the front, middle and back parts of the longissimus dorsi muscle are measured with a pH meter (Bante221, Shanghai Bante Instrument Co., Ltd.) having the function of automatic temperature compensation and then measured again after standing at room temperature for 24 h, and the pH decreased values of the muscle within 24 h are calculated. The pH value is the average value of the three readings. The meat color (L*, α*, b*) is measured with a TC-PIIG automatic color difference meter (Beijing Aoyike Photoelectric Instrument Co., Ltd.) on the muscle surface. The detection light source is D65 according to CIE laboratory standards, and the measurement area is 8 mm in diameter. The average value is obtained by making three measurements at each detection point.
About 20 g of meat sample is weighed (demoted as M1), hung with a thin thread, and covered with a plastic bag with the mouth sealed, enough space is left inside to accommodate oozy water drops, and the meat sample is hung in a 4° C. refrigerator for 24 h. After being taken out, the meat sample is weighed (denoted as M2) after the surface moisture is absorbed with absorbent paper. 3 parallel samples are measured for each rabbit, and the results are averaged. Drip loss=(M1−M2)/M1×100%.
Another meat sample is trimmed into a 1 cm×1 cm×2.5 cm meat strip, the shear force is measured in the direction perpendicular to the muscle fibers by a TMS-PRO texture analyzer (FTC Corporation, USA) for three times, and the results are averaged.

[5] = tested on: New Zealand white rabbits; assay: Growth performance (ADFI, ADG, FCR); assay type: in vivo; conditions: 28 d trial
Description: as §1
In the morning of the first day of the trial period and the second day after the trial, the experimental rabbits are weighed once on an empty stomach, and the average daily gain (ADG) of each rabbit is calculated. Leftovers are collected and weighed before feeding, and the average daily feed intake (ADFI) of each rabbit is calculated. The ratio of the average daily feed intake to the average daily gain is the feed conversion rate (FCR). The calculation formula is as follows: • ADG=(final weight−initial weight)/test days; • ADFI=total feed intake/test days; • FCR=ADFFADG.

[6] = Zhong Jingbo et al. 2021, higher additive amount
[7] = high-concentration mulberry leaf DNJ (0.4 g/kg and 2 g/kg), Zhong Jingbo et al., Xie Hui et al.
[8] = H-DNJ: basal diet+0.28 g/kg DNJ
[9] = L-DNJ: basal diet+0.14 g/kg DNJ

OC[C@H]1NC[C@H](O)[C@@H](O)[C@@H]1O [DNJ, 1-deoxynojirimycin]
brightness L* of rabbit meat [1, 6]: increase
redness α* of rabbit meat [1, 6]: no effect
activity of the duodenal amylase [1, 7]: decrease
digestibility of dry matter and ether extract in diet [1, 7]: decrease
weight gain of animals [1, 7]: slow weight gain
Apparent digestibility of Acid detergent fiber (ADF) [2, 8]: 14.88%
Apparent digestibility of Crude ash [2, 8]: 42.23%
Apparent digestibility of Crude fiber (CF) [2, 8]: 14.56%
Apparent digestibility of Crude protein (CP) [2, 8]: 76.25ª %
Apparent digestibility of Dry matter (DM) [2, 8]: 60.79^b %
Apparent digestibility of Ether extract (EE) [2, 8]: 78.35^b %
Apparent digestibility of Neutral detergent fiber [2, 8]: 20.68%
Apparent digestibility of Acid detergent fiber (ADF) [2, 9]: 12.34%
Apparent digestibility of Crude ash [2, 9]: 43.44%
Apparent digestibility of Crude fiber (CF) [2, 9]: 13.54%
Apparent digestibility of Crude protein (CP) [2, 9]: 75.17^ab %
Apparent digestibility of Dry matter (DM) [2, 9]: 61.35^ab %
Apparent digestibility of Ether extract (EE) [2, 9]: 79.84^ab %
Apparent digestibility of Neutral detergent fiber [2, 9]: 21.02%
GSH-Px of rabbit meat [3, 8]: 7.88ª U/mg prot
MDA of rabbit meat [3, 8]: 0.45 nmol/mg prot
SOD of rabbit meat [3, 8]: 25.91 U/mg prot
T-AOC of rabbit meat [3, 8]: 0.82ª U/mg prot
GSH-Px of rabbit meat [3, 9]: 6.36^b U/mg prot
MDA of rabbit meat [3, 9]: 0.41 nmol/mg prot
SOD of rabbit meat [3, 9]: 25.01 U/mg prot
T-AOC of rabbit meat [3, 9]: 0.78^ab U/mg prot
Shear force [4, 8]: 33.51 N/cm^2
Meat color Brightness L* [4, 8]: 55.34^b
Meat color Redness a* [4, 8]: 1.71ª
Meat color Yellowness b* [4, 8]: 8.35
pH45min [4, 8]: 6.77
pH24 h [4, 8]: 5.89
pH24 h decreased [4, 8]: 0.87
Drip loss [4, 8]: 3.17%
Shear force [4, 9]: 32.86 N/cm^2
Meat color Brightness L* [4, 9]: 55.82^ab
Meat color Redness a* [4, 9]: 1.56ª
Meat color Yellowness b* [4, 9]: 8.32
pH45min [4, 9]: 6.62
pH24 h [4, 9]: 5.87
pH24 h decreased [4, 9]: 0.76
Drip loss [4, 9]: 3.56%
Average daily feed intake (ADFI) [5, 8]: 140.46
Average daily gain (ADG) [5, 8]: 32.66 g/day
Feed conversion rate (FCR) [5, 8]: 0.24 g/g
Average daily feed intake (ADFI) [5, 9]: 145.33
Average daily gain (ADG) [5, 9]: 36.18 g/day
Feed conversion rate (FCR) [5, 9]: 0.25 g/g
